Consider 22 compounds from US11999746B2, “Compounds” (GlaxoSmithKline Intellectual Property Development Limited, priority 2014, dated 2024).

Test [1] deals with T1, recombinant human Lp-PLA2 (Homo sapiens, UniProt Q13093).
T1 sequence (Q13093 22-441): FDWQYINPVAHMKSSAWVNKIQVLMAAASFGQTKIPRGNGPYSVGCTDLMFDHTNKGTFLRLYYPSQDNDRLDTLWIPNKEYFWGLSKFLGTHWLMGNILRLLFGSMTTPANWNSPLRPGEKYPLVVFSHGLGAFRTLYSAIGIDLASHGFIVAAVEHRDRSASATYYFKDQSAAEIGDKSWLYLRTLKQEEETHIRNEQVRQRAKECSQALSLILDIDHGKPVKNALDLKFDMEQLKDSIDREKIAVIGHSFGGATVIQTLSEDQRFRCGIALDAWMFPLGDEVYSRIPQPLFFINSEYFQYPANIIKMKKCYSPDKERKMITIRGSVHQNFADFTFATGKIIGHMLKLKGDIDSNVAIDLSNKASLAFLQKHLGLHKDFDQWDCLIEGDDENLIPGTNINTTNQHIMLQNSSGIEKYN
In words: (1a) PED6 assay, recombinant human Lp-PLA2 (rhLp-PLA2). Format: biochemical. The note with it: Examples 1-167 and 413-430 were tested here, one experiment or average of multiple experiments, read-out: rhLp-PLA2 (pIC50) (converted). The gist of the method:
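PED6 (2 μM final after 1:1 addition of 4 μM stock) cleavage by rhLp-PLA2 (4 nM working solution) in 50 mM HEPES pH 7.4, 150 mM NaCl, 1 mM CHAPS; compounds preincubated with enzyme 30 minutes, reaction 20 min at room temperature. Fluorescence at ex 480/em 540; pIC50 from curve fit.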

In test [2] the target is T2, Lp-PLA2 in human plasma (Homo sapiens, UniProt Q13093).
T2 construct: from tissue; host or cells: pooled human plasma
T2 sequence (Q13093 22-441): T1 sequence (Q13093 22-441)
Put plainly: (3a) Lp-PLA2 human plasma Thio-PAF assay. It is filed as biochemical. To be noted: (3a) Thio-PAF assay, pooled human plasma; Examples 1-265 and 413-430 were tested here; read-out: pIC50 in the Lp-PLA2 human plasma assay (converted). Put shortly: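 Pooled human plasma preincubated 30 min with serially diluted compound, then given 2-thio-PAF substrate with CPM and NEM in 50 mM HEPES pH 7.4, 150 mM NaCl, 1 mM CHAPS. Reaction quenched with TFA after 2 min; CPM thiol-adduct fluorescence read at ex 380/em 485 after 40 min; pIC50 reported.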

On to `O=c1nc(OCc2cc(F)c(Oc3cnc(C(F)(F)F)nc3)c(F)c2)cc2n1C[C@@H]1CCCN21` [Example E91, (S)-3-((3,5-difluoro-4-((2-(trifluoromethyl)pyrimidin-5-yl)oxy)benzyl)oxy)-7,8,8a,9-tetra hydropyrrolo[1′,2′:3,4]imidazo[1,2-c]pyrimidin-1(6H)-one], for which the IC50 in test [1] was not above 1 nM; in test [2], not above 100 nM.
The corresponding values for `O=c1nc(OCc2cccc(F)c2)cc2n1C[C@H]1COCCN21` [Example E128, (S)-7-((3-fluorobenzyl)oxy)-3,4,11,11a-tetrahydropyrimido[6′,1′:2,3]imidazo[5,1-c][1,4] oxazin-9(1H)-one] are 10 nM and not above 100 nM.
The corresponding values for `O=c1nc(OCc2cc(F)c(Oc3ccnc(C(F)(F)F)c3)c(F)c2)cc2n1C[C@H]1COCN21` [Example E141, (S)-6-((3,5-difluoro-4-((2-(trifluoromethyl)pyridin-4-yl)oxy)benzyl)oxy)-10,10a-dihydro-1H-oxazolo[3′,4′:3,4]imidazo[1,2-c]pyrimidin-8(3H)-one] are not above 1 nM and not above 100 nM.
The corresponding values for `O=c1nc(OCc2cccc(F)c2)cc2n1C[C@H]1COCN21` [Example E148, (S)-6-((3-fluorobenzyl)oxy)-10,10a-dihydro-1H-oxazolo[3′,4′:3,4]imidazo[1,2-c]pyrimidin-8(3H)-one] are not above 100 nM and not above 10000 nM.
Turning to `CCn1cc(Oc2c(F)cc(COc3cc4n(c(=O)n3)C[C@@H]3COCN43)cc2F)cn1` [Example E158, (R)-6-((4-((1-ethyl-1H-pyrazol-4-yl)oxy)-3,5-difluorobenzyl)oxy)-10,10a-dihydro-1H-oxazolo[3′,4′:3,4]imidazo[1,2-c]pyrimidin-8(3H)-one], the values for the IC50 in test [1] and in test [2] were not above 100 nM and not above 10000 nM, respectively.
On the same counts, the results for `CCCn1cc(Oc2c(F)cc(COc3cc4n(c(=O)n3)C[C@H]3COCN43)cc2F)cn1` [Example E150, (S)-6-((3,5-difluoro-4-((1-propyl-1H-pyrazol-4-yl)oxy)benzyl)oxy)-10,10a-dihydro-1H-oxazolo[3′,4′:3,4]imidazo[1,2-c]pyrimidin-8(3H)-one] are not above 100 nM and not above 100 nM.
For `O=c1nc(OCc2cc(F)c(Oc3ccnc(C(F)(F)F)c3)c(F)c2)cc2n1C[C@@H]1COCN21` [Example E142, (R)-6-((3,5-difluoro-4-((2-(trifluoromethyl)pyridin-4-yl)oxy)benzyl)oxy)-10,10a-dihydro-1H-oxazolo[3′,4′:3,4]imidazo[1,2-c]pyrimidin-8(3H)-one], the IC50 in test [1] is not above 1 nM; in test [2] it was not above 100 nM.
The corresponding values for `Cn1cc(Oc2c(F)cc(COc3cc4n(c(=O)n3)C[C@H]3COCN43)cc2F)cn1` [Example E143, (S)-6-((3,5-difluoro-4-((1-methyl-1H-pyrazol-4-yl)oxy)benzyl)oxy)-10,10a-dihydro-1H-oxazolo[3′,4′:3,4]imidazo[1,2-c]pyrimidin-8(3H)-one] are not above 100 nM and not above 10000 nM.
Take `O=c1nc(OCc2cc(F)c(Oc3ccnc(C(F)(F)F)c3)c(F)c2)cc2n1CC1OCCN21` (single isomer, unassigned) [Example E164, 6-((3,5-difluoro-4-((2-(trifluoromethyl)pyridin-4-yl)oxy)benzyl)oxy)-10,10a-dihydro-2H-oxazolo[3′,2′:3,4]imidazo[1,2-c]pyrimidin-8(3H)-one]: the IC50 in test [1] is not above 1 nM; in test [2], not above 100 nM.
The corresponding values for `N#Cc1cc(COc2cc3n(c(=O)n2)CC2COCCN32)ccc1Oc1ccc(F)c(C(F)(F)F)c1` (centres unmarked) [Example E111, 2-(4-Fluoro-3-(trifluoromethyl)phenoxy)-5-(((9-oxo-1,3,4,9,11,11a-hexahydropyrimido[6′,1′:2,3]imidazo[5,1-c][1,4]oxazin-7-yl)oxy)methyl)benzonitrile] are not above 1 nM and not above 100 nM.
On the same counts, the results for `O=c1nc(OCc2ccc(Oc3ccc(C(F)(F)F)nc3)c(F)c2)cc2n1CC1CCCCN21` (centres unmarked) [Example E48, 3-((3-Fluoro-4-((6-(trifluoromethyl)pyridin-3-yl)oxy)benzyl)oxy)-6,7,8,9,9a,10-hexahydro-1H-pyrido[1′,2′:3,4]imidazo[1,2-c]pyrimidin-1-one] are not above 1 nM and not above 10000 nM.
On the same counts, the results for `O=c1nc(OCc2ccc(Oc3cncc(C(F)(F)F)c3)c(F)c2)cc2n1CC1CCCCN21` (centres unmarked) [Example E47, 3-((3-Fluoro-4-((5-(trifluoromethyl)pyridin-3-yl)oxy)benzyl)oxy)-6,7,8,9,9a,10-hexahydro-1H-pyrido[1′,2′:3,4]imidazo[1,2-c]pyrimidin-1-one] are not above 1 nM and not above 100 nM.
Take `O=c1nc(OCc2cc(F)c(Oc3ccnc(C(F)(F)F)c3)c(F)c2)cc2n1C[C@@H]1CCOCN21` [Example E134, (S)-3-((3,5-difluoro-4-((2-(trifluoromethyl)pyridin-4-yl)oxy)benzyl)oxy)-8,9,9a,10-tetrahydropyrimido[6′,1′:2,3]imidazo[1,5-c][1,3]oxazin-1(6H)-one]: the results for the IC50 in test [1] and in test [2] were not above 1 nM and not above 100 nM, respectively.
For the compound `O=c1nc(OCc2ccc(Oc3ccc(F)c(F)c3)c(F)c2)cc2n1CC1CCCCN21` (centres unmarked) [Example E18, 3-((4-(3,4-Difluorophenoxy)-3-fluorobenzyl)oxy)-6,7,8,9,9a,10-hexahydro-1H-pyrido[1′,2′:3,4]imidazo[1,2-c]pyrimidin-1-one], the IC50 in test [1] was not above 100 nM; in test [2] it was not above 10000 nM.
With `O=c1nc(OCc2cc(F)c(F)c(Cl)c2)cc2n1CC1CCCCN21` (centres unmarked) [Example E16, 3-((3-Chloro-4,5-difluorobenzyl)oxy)-6,7,8,9,9a,10-hexahydro-1H-pyrido[1′,2′:3,4] imidazo[1,2-c]pyrimidin-1-one], the IC50 in test [1] is not above 100 nM; in test [2] it was not above 10000 nM.
The corresponding values for `O=c1nc(OCc2cc(F)c(F)c(F)c2)cc2n1C[C@@H]1COCN21` [Example E153, (R)-6-((3,4,5-trifluorobenzyl)oxy)-10,10a-dihydro-1H-oxazolo[3′,4′:3,4]imidazo[1,2-c] pyrimidin-8(3H)-one] are not above 100 nM and not above 10000 nM.
On the same counts, the results for `O=c1nc(OCc2cc(F)cc(F)c2)cc2n1C[C@@H]1CCCCN21` [Example E35, (S)-3-((3,5-Difluorobenzyl)oxy)-6,7,8,9,9a,10-hexahydro-1H-pyrido[1′,2′:3,4]imidazo[1,2-c]pyrimidin-1-one] are not above 100 nM and not above 10000 nM.
On to `Cn1cc(Oc2c(F)cc(COc3cc4n(c(=O)n3)C[C@@H]3COCN43)cc2F)cn1` [Example E144, (R)-6-((3,5-difluoro-4-((1-methyl-1H-pyrazol-4-yl)oxy)benzyl)oxy)-10,10a-dihydro-1H-oxazolo[3′,4′:3,4]imidazo[1,2-c]pyrimidin-8(3H)-one], for which the IC50 in test [1] was not above 100 nM; in test [2], not above 10000 nM.
Regarding `Cc1ccc(Oc2c(F)cc(COc3cc4n(c(=O)n3)C[C@H]3COCN43)cc2F)cn1` [Example E149, (S)-6-((3,5-difluoro-4-((6-methylpyridin-3-yl)oxy)benzyl)oxy)-10,10a-dihydro-1H-oxazolo[3′,4′:3,4]imidazo[1,2-c]pyrimidin-8(3H)-one], the figures for the IC50 in test [1] and in test [2] were not above 1 nM and not above 100 nM, respectively.
On the same counts, the results for `Cc1cc(Oc2c(F)cc(COc3cc4n(c(=O)n3)C[C@H]3COCCN43)cc2F)ccn1` [Example E124, (S)-7-((3,5-difluoro-4-((2-methylpyridin-4-yl)oxy)benzyl)oxy)-3,4,11,11atetrahydropyrimido[6′,1′:2,3]imidazo[5,1-c][1,4]oxazin-9(1H)-one] are 0.501 nM and not above 100 nM.
The corresponding values for `O=c1nc(OCc2cc(F)c(Oc3ccnc(Cl)c3)c(F)c2)cc2n1CC1CCCCN21` (centres unmarked) [Example E26, 3-((4-((2-Chloropyridin-4-yl)oxy)-3,5-difluorobenzyl)oxy)-6,7,8,9,9a,10-hexahydro-1H-pyrido[1,2′:3,4]imidazo[1,2-c]pyrimidin-1-one] are not above 1 nM and not above 100 nM.
The corresponding values for `O=c1nc(OCc2ccc(Oc3cnc(C(F)(F)F)nc3)c(F)c2)cc2n1C[C@@H]1CCCN21` [Example E72, (S)-3-((3-fluoro-4-((2-(trifluoromethyl)pyrimidin-5-yl)oxy)benzyl)oxy)-7,8,8a, 9-tetra hydropyrrolo[1′,2′:3,4]imidazo[1,2-c]pyrimidin-1(6H)-one] are not above 100 nM and not above 10000 nM.
